Laboratory results as given in US20240336611A1 (Insilico Medicine IP Limited, priority 2021, published 2024).

Tests used:
[1] = Metabolic stability in human liver microsomes; format: in vitro ADME; details: LM Clint (intrinsic clearance); 1 μM test compound, 0.5 mg protein/mL microsome, 37° C., up to 60 min
Experimental: 2.1. Test Compound and Control Working Solution Preparation: Working solution: 5 µL of compound and control stock solution (10 mM in dimethyl sulfoxide (DMSO)) were diluted with 495 μL of acetonitrile (ACN) (intermediate solution concentration: 100 μM, 99% ACN).
2.2.1. […] 2.2.2. Preparation Procedure: The appropriate amount of NADPH powder were weighed and diluted into a 10 mM MgCl2 solution (working solution concentration: 10 unit/mL; final concentration in reaction system: 1 unit/mL).
2.3.2. Preparation Procedure: The appropriate concentrations of microsome working solutions were prepared in 100 mM potassium phosphate buffer. 2.4. Stop Solution Preparation: Cold (4° C.) acetonitrile (ACN) containing 200 ng/mL tolbutamide and 200 ng/mL labetalol as internal standards (IS) were used as the stop solution.
2.5.1. Pre-warm empty ‘Incubation’ plates T60 and NCF60 for 10 min minutes. 2.5.2. Liver microsomes were diluted to 0.56 mg/mL in 100 mM phosphate buffer. 2.5.3. 445 uL microsome working solutions (0.56 mg/mL) were transferred into pre-warmed ‘Incubation’ plates T60 and NCF60. Then ‘Incubation’ plates T60 and NCF60 were pre-incubated for 10 min at 37° C. with constant shaking. 54 μL liver microsomes were transferred to blank plate, then 6 μL NAPDH cofactor were added to the blank plate, and then 180 μL quenching solution can be added to blank plate. 2.5.4 5 μL compound working solution (100 μM) were added into ‘incubation’ plates (T60 and NCF60) containing microsomes and mix 3 times thoroughly. 2.5.5. For the NCF60 plate, 50 uL of buffer were added and were mixed 3 times thoroughly. Start timing; plate was incubated at 37° C. for 60 min while shaking. 2.5.6. In ‘Quenching’ plate TO, 180 μL quenching solution were added and 6 μL NAPDH cofactor were added. Ensured the plate was chilled to prevent evaporation. 2.5.7. For the T60 plate, were mixed 3 times thoroughly, and immediately removed 54 μL mixture for the 0-min time point to ‘Quenching’ plate. Then 44 μL NAPDH cofactor were added to incubation plate (T60). Start timing; plate were incubated at 37° C. for 60 min while shaking.
2.5.8. At 5, 10, 20, 30, and 60 min, 180 μL quenching solution were added to ‘Quenching’ plates, mix once, and were serially transferred 60 μL sample from T60 plate per time point to ‘Quenching’ plates.
2.5.9. For NCF60: were mixed once, and 60 μL sample were transferred from the NCF60 incubation to ‘Quenching’ plate containing quenching solution at the 60-min time point.
2.5.10. All sampling plates were shaken for 10 min, then centrifuged at 4000 rpm for 20 minutes at 4° C. 2.5.11. 80 μL supernatant were transferred into 240 μL HPLC water, and were mixed by plate shaker for 10 min. 2.5.12. Each bioanalysis plate were sealed and shaken for 10 minutes prior to LC-MS/MS analysis.
3.1. The equation of first order kinetics were used to calculate T1/2 and Intrinsic clearance (CLint mic) in (μL/min/mg).
Equation of first order kinetic.

[2] = target: T1, TNIK kinase [amino acid sequence (1-367), Invitrogen] (Homo sapiens, UniProt Q9UKE5); assay: TNIK kinase inhibition assay (Z-lyte FRET-peptide); format: biochemical; details: 0.625 nM TNIK kinase, 2 μM Ser/Thr 7 peptide, 64 μM ATP, one hour at room temperature
T1 construct: purchased Invitrogen
Experimental: Z-lyte assay kit was purchased from Invitrogen. A site-specific protease recognizes and cleaves non-phosphorylated FRET-peptides. Phosphorylation of FRET-peptides suppresses cleavage by protease and will maintain FRET from donor to acceptor.
5 μl of Development Reagent A solution was then added to cleave non-phosphorylated peptide with a dilution 1:65000 in Development Buffer B. The assay plate was incubated at room temperature for another one hour and then read in the Envision plate reader (PerkinElmer).

T1 sequence (Q9UKE5 1-367): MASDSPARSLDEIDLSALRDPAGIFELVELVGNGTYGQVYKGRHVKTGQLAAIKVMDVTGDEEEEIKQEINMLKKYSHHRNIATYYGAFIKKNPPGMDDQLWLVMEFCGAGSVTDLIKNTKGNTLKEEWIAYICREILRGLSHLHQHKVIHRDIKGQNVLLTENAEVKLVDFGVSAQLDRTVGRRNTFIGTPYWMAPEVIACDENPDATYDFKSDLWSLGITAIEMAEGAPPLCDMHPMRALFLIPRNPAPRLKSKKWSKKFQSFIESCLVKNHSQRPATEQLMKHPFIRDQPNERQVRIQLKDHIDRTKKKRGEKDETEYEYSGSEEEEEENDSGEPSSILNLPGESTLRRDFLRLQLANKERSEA

SMILES | Human Liver Microsome (μM/min/mg) [1] | IC50 [2] [nM]
CC(C)n1cnc(-c2ccc(F)cc2)c1-c1nc(C(=O)Nc2ccc(N3CCN(C)CC3)cc2)cs1 [Compound 2, 2-(4-(4-fluorophenyl)-1-isopropyl-1H-imidazol-5-yl)-N-(4-(4-methylpiperazin-1-yl)phenyl)thiazole-4-carboxamide] | ++ (10-100 μM/min/mg as ++) | 1 to 12
CC(C)n1cnc(-c2ccc(F)cc2)c1-c1nc(C(=O)Nc2ccc(N3CCN(C)CC3)cc2F)cs1 [Compound 6, N-(2-fluoro-4-(4-methylpiperazin-1-yl)phenyl)-2-(4-(4-fluorophenyl)-1-isopropyl-1H-imidazol-5-yl)thiazole-4-carboxamide] | + (>100 μM/min/mg as +) | 1 to 12
CC(C)n1cnc(-c2ccc(F)cc2)c1-c1nc(C(=O)Nc2ccc(N3CCN(C)CC3)cn2)cs1 [Compound 7, 2-(4-(4-fluorophenyl)-1-isopropyl-1H-imidazol-5-yl)-N-(5-(4-methylpiperazin-1-yl)pyridin-2-yl)thiazole-4-carboxamide] | + (>100 μM/min/mg as +) | 1 to 12
CC(C)n1cnc(-c2ccc(F)cc2)c1-c1nc(C(=O)Nc2ccc(N3CCN(C)CC3)nc2)cs1 [Compound 8, 2-(4-(4-fluorophenyl)-1-isopropyl-1H-imidazol-5-yl)-N-(6-(4-methylpiperazin-1-yl)pyridin-3-yl)thiazole-4-carboxamide] | + (>100 μM/min/mg as +) | 1 to 12
CC(C)n1cnc(-c2ccc(F)cc2)c1-c1nc(C(=O)Nc2ccc(C3CCN(C)CC3)cn2)cs1 [Compound 9, 2-(4-(4-fluorophenyl)-1-isopropyl-1H-imidazol-5-yl)-N-(5-(1-methylpiperidin-4-yl)pyridin-2-yl)thiazole-4-carboxamide] | ++ (10-100 μM/min/mg as ++) | 1 to 12
CC(C)n1cnc(-c2ccc(F)cc2)c1-c1csc(C(=O)Nc2ccc(N3CCN(C)CC3)cc2F)n1 [Compound 12, N-(2-fluoro-4-(4-methylpiperazin-1-yl)phenyl)-4-(4-(4-fluorophenyl)-1-isopropyl-1H-imidazol-5-yl)thiazole-2-carboxamide] | ++ (10-100 μM/min/mg as ++) | 1 to 12
CC(C)n1cnc(-c2ccc(F)cc2)c1-c1csc(C(=O)Nc2ccc(N3CCN(C)CC3)cn2)n1 [Compound 13, 4-(4-(4-fluorophenyl)-1-isopropyl-1H-imidazol-5-yl)-N-(5-(4-methylpiperazin-1-yl)pyridin-2-yl)thiazole-2-carboxamide] | + (>100 μM/min/mg as +) | 1 to 12
CC(C)n1cnc(-c2ccc(F)cc2)c1-c1nc(C(=O)Nc2ccc(N3CCN(C)CC3)cc2F)c[nH]1 [Compound 14, N-(2-fluoro-4-(4-methylpiperazin-1-yl)phenyl)-5′-(4-fluorophenyl)-3′-isopropyl-1H,3′H-[2,4′-biimidazole]-4-carboxamide] | ++ (10-100 μM/min/mg as ++) | 1 to 12
CC(C)n1cnc(-c2ccc(F)cc2)c1-c1nc(C(=O)Nc2ccc(N3CCN(C)CC3)cn2)c[nH]1 [Compound 21, 5′-(4-fluorophenyl)-3′-isopropyl-N-(5-(4-methylpiperazin-1-yl)pyridin-2-yl)-1H,3′H-[2,4′-biimidazole]-4-carboxamide] | ++ (10-100 μM/min/mg as ++) | 1 to 12
CC(C)n1cnc(-c2ccc(F)cc2)c1-c1nc(C(=O)Nc2ccc(N3CC4CC(C3)N4C)cc2)c[nH]1 [Compound 23, 5′-(4-fluorophenyl)-3′-isopropyl-N-(4-(6-methyl-3,6-diazabicyclo[3.1.1]heptan-3-yl)phenyl)-1H,3′H-[2,4′-biimidazole]-4-carboxamide] | ++ (10-100 μM/min/mg as ++) | 1 to 12
CC(C)n1cnc(-c2ccc(F)cc2)c1-c1nc(C(=O)Nc2ccc(N3C[C@H]4CC[C@@H](C3)N4C)cn2)c[nH]1 [Compound 24, 5′-(4-fluorophenyl)-3′-isopropyl-N-(5-((1R,5S)-8-methyl-3,8-diazabicyclo[3.2.1]octan-3-yl)pyridin-2-yl)-1H,3′H-[2,4′-biimidazole]-4-carboxamide] | ++ (10-100 μM/min/mg as ++) | 1 to 12
CN1CCN(c2ccc(NC(=O)c3c[nH]c(-c4c(-c5ccc(F)cc5)ncn4C4CCC4)n3)cc2)CC1 [Compound 26, 3′-cyclobutyl-5′-(4-fluorophenyl)-N-(4-(4-methylpiperazin-1-yl)phenyl)-1H,3′H-[2,4′-biimidazole]-4-carboxamide] | ++ (10-100 μM/min/mg as ++) | 12 to 150
CC(C)n1cnc(-c2ccc(F)cc2)c1-c1nc(C(=O)Nc2ccc(N3CCN(C)CC3)cc2F)co1 [Compound 28, N-(2-fluoro-4-(4-methylpiperazin-1-yl)phenyl)-2-(4-(4-fluorophenyl)-1-isopropyl-1H-imidazol-5-yl)oxazole-4-carboxamide] | + (>100 μM/min/mg as +) | 1 to 12
CC(C)n1cnc(-c2ccc(F)cc2)c1-c1nc(C(=O)Nc2ccc(C3CN(C)C3)cn2)cs1 [Compound 30, 2-(4-(4-fluorophenyl)-1-isopropyl-1H-imidazol-5-yl)-N-(5-(1-methylazetidin-3-yl)pyridin-2-yl)thiazole-4-carboxamide] | ++ (10-100 μM/min/mg as ++) | 1 to 12
CC(C)c1noc(-c2ccc(F)cc2)c1-c1nc(C(=O)Nc2ccc(C3COC3)cc2F)cs1 [Compound 31, N-(2-fluoro-4-(oxetan-3-yl)phenyl)-2-(5-(4-fluorophenyl)-3-isopropylisoxazol-4-yl)thiazole-4-carboxamide] | ++ (10-100 μM/min/mg as ++) | 12 to 150
O=C(Nc1ccc(N2CCOCC2)cn1)c1c[nH]c(-c2c(-c3ccc(F)cc3)ncn2C2COC2)n1 [Compound 72, 5′-(4-fluorophenyl)-N-(5-morpholinopyridin-2-yl)-3′-(oxetan-3-yl)-1H,3′H-[2,4′-biimidazole]-4-carboxamide] | ++ (10-100 μM/min/mg as ++) | 
[2H]C([2H])([2H])N1CC(c2ccc(NC(=O)c3nc(-c4c(-c5ccc(F)cc5)ncn4C(C)C)cs3)nc2)C1 [Compound 130, 4-[5-(4-fluorophenyl)-3-isopropyl-imidazol-4-yl]-N-[5-[1-(trideuteriomethyl)azetidin-3-yl]-2-pyridyl]thiazole-2-carboxamide] | ++ (10-100 μM/min/mg as ++) | 
[2H]C([2H])([2H])N1CC(c2ccc(NC(=O)c3nc(-c4c(-c5ccc(F)cc5)ncn4C(C)C)cs3)c(F)c2)C1 [Compound 131, 4-[5-(4-fluorophenyl)-3-isopropyl-imidazol-4-yl]-N-[2-fluoro-4-[1-(trideuteriomethyl)azetidin-3-yl]phenyl]thiazole-2-carboxamide] | ++ (10-100 μM/min/mg as ++) | 
